Data set [1] deals with T1, soluble guanylate cyclase (sGC) (Bos taurus, UniProt P16068+P19687).
T1 construct: The sGC employed had been isolated from bovine lung; from tissue; host or cells: bovine lung
T1 sequence (P19687 1-691): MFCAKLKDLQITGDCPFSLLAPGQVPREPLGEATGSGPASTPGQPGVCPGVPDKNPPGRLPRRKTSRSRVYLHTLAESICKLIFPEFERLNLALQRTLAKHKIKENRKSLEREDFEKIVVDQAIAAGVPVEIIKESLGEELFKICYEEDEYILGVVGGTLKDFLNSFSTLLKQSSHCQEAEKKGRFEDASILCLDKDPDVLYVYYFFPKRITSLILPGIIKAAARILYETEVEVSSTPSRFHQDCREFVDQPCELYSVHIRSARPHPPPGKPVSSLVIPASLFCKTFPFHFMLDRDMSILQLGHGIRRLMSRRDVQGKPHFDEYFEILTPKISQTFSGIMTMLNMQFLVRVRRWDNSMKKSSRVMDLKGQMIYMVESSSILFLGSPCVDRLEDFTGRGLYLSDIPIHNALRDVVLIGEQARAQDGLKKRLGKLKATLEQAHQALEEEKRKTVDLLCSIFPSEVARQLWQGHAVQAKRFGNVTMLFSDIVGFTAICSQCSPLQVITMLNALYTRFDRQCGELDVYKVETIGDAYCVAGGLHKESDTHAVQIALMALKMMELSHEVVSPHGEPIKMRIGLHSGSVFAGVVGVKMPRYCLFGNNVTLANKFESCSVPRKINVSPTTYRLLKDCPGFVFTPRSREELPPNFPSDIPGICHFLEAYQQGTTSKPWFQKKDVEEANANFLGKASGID
T1 sequence (P16068 1-619): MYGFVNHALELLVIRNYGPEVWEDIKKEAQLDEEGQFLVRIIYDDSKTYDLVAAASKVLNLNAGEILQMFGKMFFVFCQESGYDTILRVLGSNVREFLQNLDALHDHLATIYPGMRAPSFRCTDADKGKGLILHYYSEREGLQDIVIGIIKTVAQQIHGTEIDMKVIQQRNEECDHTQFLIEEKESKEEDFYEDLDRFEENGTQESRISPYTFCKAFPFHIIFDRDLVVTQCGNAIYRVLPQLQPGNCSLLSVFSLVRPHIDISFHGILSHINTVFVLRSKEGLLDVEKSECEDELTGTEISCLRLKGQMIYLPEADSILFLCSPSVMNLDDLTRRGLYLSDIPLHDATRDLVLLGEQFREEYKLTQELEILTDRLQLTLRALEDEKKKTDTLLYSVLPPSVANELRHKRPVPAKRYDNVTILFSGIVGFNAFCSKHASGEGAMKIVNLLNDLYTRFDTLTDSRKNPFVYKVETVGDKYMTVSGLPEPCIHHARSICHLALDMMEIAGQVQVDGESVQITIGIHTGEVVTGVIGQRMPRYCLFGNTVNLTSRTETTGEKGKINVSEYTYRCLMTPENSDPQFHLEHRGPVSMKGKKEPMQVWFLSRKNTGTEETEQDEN
Put plainly: Activation of the soluble guanylate cyclase (cGMP enzyme immunoassay). The class given is biochemical. The following applies: test substance 50 μM; sGC isolated from bovine lung; [cGMP] test substance/[cGMP] control (basal activity, solvent); 37° C., 15 to 20 minutes. On the procedure: Activation of the Soluble Guanylate Cyclase
The activation of the soluble guanylate cyclase (sGC), which catalyzes the conversion of guanosine triphosphate (GTP) into cyclic guanosine monophosphate (cGMP) and pyrophosphate, by the compounds according to the invention was quantified with the aid of an enzyme immunoassay (EIA) from Amersham. For this, the test substances were first incubated with sGC in microtiter plates and then the amount of resulting cGMP was determined. The sGC employed had been isolated from bovine lung (see Methods in Enzymology, Volume 195, p. 377). The test solutions (100 μl per well) contained 50 mM triethanolamine (TEA) buffer (pH 7.5), 3 mM MgCl2, 3 mM reduced glutathione (GSH), 0.1 mM GTP, 1 mM 3-isobutyl-1-methylxanthine (IBMX), suitably diluted enzyme solution and the test substance or, in the case of the control experiments, solvent. The test substances were dissolved in dimethyl sulfoxide (DMSO) and the solution was diluted with DMSO/water such that the final concentration of test substance in the test solution was 50 μM. The DMSO concentration in the test solution was 5% (v/v). The reaction was started by addition of the sGC. The reaction mix was incubated at 37° C. for 15 to 20 minutes and then stopped by ice-cooling and addition of the stop reagent (50 mM EDTA, pH 8.0). An aliquot of 50 μl was taken and employed for the determination of the cGMP content using the acetylation protocol of the Amersham cGMP EIA kit. The absorption of the samples was measured at 450 nm (reference wavelength 620 nm) in a microtiter plate reader. The cGMP concentration was determined by means of a calibration curve which was obtained under the same experimental conditions. The activation of the sGC by a test substance is indicated as n-fold stimulation of the basal enzyme activity which was found in the control experiments (with solvent instead of test substance calculated according to the formula
n-fold stimulation=[cGMP]test substance/[cGMP]control).

For the molecule `COc1cc2c(N3CCC(O)CC3)nc(-c3ccc(Cl)cc3)nc2c(OC)c1OC` [Example 95, 2-(4-Chlorophenyl)-4-(4-hydroxypiperidino)-6,7,8-tdmethoxyquinazoline], the “n-fold Stimulation” value in data set [1] worked out at 7 n-fold.

Consider `COc1cc2nc(-c3ccc(Cl)cc3)nc(N3CCN(C)CC3)c2cc1OC.Cl` [Example 17, 2-(4-Chlorophenyl)-4-(4-methylpiperazino)-6,7-dimethoxyquinazoline Hydrochloride], for which the melting point turned out to be 249 °C. In addition, the “n-fold Stimulation” value in data set [1] was found to be 4 n-fold.

Turning to `COc1cc2nc(-c3ccc(Cl)cc3)nc(N3CCN(CCO)CC3)c2cc1OC` [Example 23, 2-(4-Chlorophenyl)-4-(4-(2-hydroxyethyl)piperazino)-6,7-dimethoxyquinazoline], the melting point was found to be 163 °C. Moreover, in data set [1], the “n-fold Stimulation” value is 4 n-fold.

`COc1cc2c(N3CCN(CCO)CC3)nc(-c3ccc(Cl)cc3)nc2c(OC)c1OC` [Example 13, 2-(4-Chlorophenyl)-4-(4-(2-hydroxyethyl)piperazino)-6,7,8-trimethoxyquinazoline] registered a melting point of 175 °C. The “n-fold Stimulation” value in data set [1] was determined as 7 n-fold.

Turning to `COc1cc2nc(-c3ccc(C(F)(F)F)cc3)nc(NCCO)c2cc1OC` [Example 42, 2-(4-Trifluoromethylphenyl)-4-(2-hydroxyethylamino)-6,7-dimethoxyquinazoline], the melting point amounted to 210 °C. Further, in data set [1], the “n-fold Stimulation” value is given as 3 n-fold.

Molecule `COc1cc2nc(-c3ccc(C)cc3)nc(N3CCN(C)CC3)c2cc1OC` [Example 39, 2-(4-Methylphenyl)-4-(4-methylpiperazino)-6,7-dimethoxyquinazoline] gave a melting point of 166 °C. The “n-fold Stimulation” value in data set [1] is reported as 3 n-fold.

Molecule `COc1cc2c(NCCN(C(C)C)C(C)C)nc(-c3ccc(Cl)cc3)nc2c(OC)c1OC.Cl` [Example 11, 2-(4-Chlorophenyl)-4-(2-diisopropylaminoethylamino)-6,7,8-trimethoxyquinazoline Hydrochloride] yielded a melting point of 189 °C. The “n-fold Stimulation” value in data set [1] is on record as 6 n-fold.

For `COc1cc2nc(-c3ccc(Cl)cc3)nc(N[C@H]3CC[C@H](O)CC3)c2cc1OC` [Example 93, 2-(4-Chlorophenyl)-4-(trans-4-hydroxycyclohexylamino)-6,7-dimethoxyquinazoline], the melting point was found to be 261 °C. The “n-fold Stimulation” value in data set [1] was 14 n-fold.

The molecule `COc1cc2nc(-c3ccc(Cl)cc3)nc(NCc3cccnc3)c2cc1OC` [Example 28, 2-(4-Chlorophenyl)-4-((3-pyridylmethyl)amino)-6,7-dimethoxyquinazoline] showed a melting point of 232 °C. The “n-fold Stimulation” value in data set [1] was found to be 5 n-fold.

`COc1cc2nc(-c3ccc(C(F)(F)F)cc3)nc(NCc3cccnc3)c2cc1OC` [Example 44, 2-(4-Trifluoromethylphenyl)-4-((3-pyridylmethyl)amino)-6,7-dimethoxyquinazoline] showed a melting point of 238 °C. The “n-fold Stimulation” value in data set [1] turned out to be 4 n-fold.

With `COCCNc1nc(-c2ccc(Cl)cc2)nc2cc(OC)c(OC)cc12` [Example 36, 2-(4-Chlorophenyl)-4-(2-methoxyethylamino)-6,7-dimethoxyquinazoline], the melting point stood at 178 °C. For the same molecule, the “n-fold Stimulation” value in data set [1] was found to be 5 n-fold.

In the case of `COc1cc2nc(-c3ccc(C)cc3)nc(N3CC[S+]([O-])CC3)c2cc1OC` [Example 77, 2-(4-Methylphenyl)-4-(1-oxothiomorpholino)-6,7-dimethoxyquinazoline], the melting point came out at 216 °C.

For the molecule `COc1cc2c(N3CCN(Cc4ccccc4)CC3)nc(-c3ccc(Cl)cc3)nc2c(OC)c1OC` [Example 09, 2-(4-Chlorophenyl)-4-(4-benzylpiperazino)-6,7,8-trimethoxyquinazoline], the “n-fold Stimulation” value in data set [1] came out at 4 n-fold.

In turn, `COc1cc2nc(-c3ccc(Cl)cc3)nc(NCCN(C(C)C)C(C)C)c2cc1OC.Cl.Cl` returned a melting point of 246 °C.

On to `COc1cc2nc(-c3ccc(Cl)cc3)nc(N3CCN(CC(=O)N4CCOCC4)CC3)c2cc1OC` [Example 30, 2-(4-Chlorophenyl)-4-(4-(morpholinocarbonylmethyl)piperazino)-6,7-dimethoxyquinazoline], for which the melting point was determined as 198 °C.

For the molecule `CCCN(CCC)c1nc(-c2ccc(Cl)cc2)nc2cc(OC)c(OC)cc12` [Example 81, 2-(4-Chlorophenyl)-4-dipropylamino-6,7-dimethoxyquinazoline], the melting point is 223 °C.

Molecule `COc1cc2nc(-c3ccc(C(F)(F)F)cc3)nc(N3CCN(CCO)CC3)c2cc1OC` [Example 43, 2-(4-Trifluoromethylphenyl)-4-(4-(2-hydroxyethyl)piperazino)-6,7-dimethoxyquinazoline] displayed a melting point of 176 °C.

With `COc1cc2c(NCCCn3ccnc3)nc(-c3ccc(Cl)cc3)nc2c(OC)c1OC` [Example 59, 2-(4-Chlorophenyl)-4-(3-(1-imidazolyl)propylamino)-6,7,8-trimethoxyquinazoline], the melting point worked out at 245 °C.

In the case of `COC(=O)CNc1nc(-c2ccc(Cl)cc2)nc2cc(OC)c(OC)cc12` [Example 47, 2-(4-Chlorophenyl)-4-((methoxycarbonylmethyl)amino)-6,7-dimethoxyquinazoline], the melting point is 196 °C.

As to `COc1cc2c(N3CCNCC3)nc(-c3ccc(Cl)cc3)nc2c(OC)c1OC` [Example 56, 2-(4-Chlorophenyl)-4-piperazino-6,7,8-trimethoxyquinazoline], the melting point is 156 °C.

With `COc1cc2nc(-c3ccc(Cl)cc3)nc(NCC(=O)O)c2cc1OC` [Example 34, N-(2-(4-Chlorophenyl)-6,7-dimethoxyquinazolin-4-yl)aminoacetic Acid], the melting point was 270 °C (dec.).

Take `COc1cc2c(NCCN(C(C)C)C(C)C)nc(-c3cc(C(F)(F)F)cc(C(F)(F)F)c3)nc2c(OC)c1OC` [Example 63, 2-(3,5-Bistrifluoromethylphenyl)-4-(2-diisopropylaminoethylamino)-6,7,8-trimethoxyquinazoline]: the melting point was found to be 128 °C.

In turn, `COc1cc2c(N3CCSCC3)nc(-c3ccc(Cl)cc3)nc2c(OC)c1OC` [Example 66, 2-(4-Chlorophenyl)-4-thiomorpholino-6,7,8-trimethoxyquinazoline] yielded a melting point of 174 °C.

For `COc1cc2nc(-c3ccc(Cl)cc3)nc(N3CC(C)OC(C)C3)c2cc1OC` (centres unmarked) [Example 85, 2-(4-Chlorophenyl)-4-(2,6-dimethylmorpholino)-6,7-dimethoxyquinazoline], the melting point was 165 °C.

`COc1cc2nc(-c3ccc(Cl)cc3)nc(N3CCN(Cc4ccccc4)CC3)c2cc1OC.Cl.Cl` returned a melting point of 225 °C.

The term melting point denotes the temperature of the solid-liquid transition.

The record behind these values is patent US6613772B1, “Substituted 2-aryl-4-amino-chinazolines, method for the production and use thereof as medicaments” (Aventis Pharma Deutschland GmbH, priority 1997, dated 2003).
